Assay results taken from publication PMC9331182, “Characterization of a novel recombinant halophilic β-glucosidase of Trichoderma harzianum derived from Hainan mangrove” (BMC Microbiology, 2022).

Tested on: T1, Bgl3HB
T1 construct: pPICZalphaA (alpha-factor secretion) in Komagataella phaffii X33; by primers starts MVNNAA and ends QIQDATP plus C-terminal His6; GH3, GH3-C and Fn3-like domains
Experiment: pNP release, OD400, Lineweaver-Burk
Format: biochemical, Trichoderma harzianum
Conditions: pH 4.0, 50 °C, 10 min
From the text: pNP release, OD400, Lineweaver-Burk on Bgl3HB

Km: 1220 µM
SMILES: O=[N+]([O-])c1ccc(O[C@@H]2O[C@H](CO)[C@@H](O)[C@H](O)[C@H]2O)cc1 [pNPG]
